Data on 22 compounds can be found in ChEMBL document CHEMBL4177619, “Novel potentially antifungal hybrids of 5-flucytosine and fluconazole: Design, synthesis and bioactive evaluation” (2017).

What is called MIC80 is the lowest concentration that inhibits either 80% of growth or 80% of the strains tested, depending on the study.

Values after ≈ are worked out from the molar mass of the structure shown. Active and inactive are the calls of the source. No cut-off for these calls is given here.

Test [1] has as its system Candida albicans. Nature of the test: Antifungal activity against Candida albicans after 24 hrs by micro broth dilution method. Format: functional. On the technique in general: Broth dilution looks for growth in wells or tubes with falling amounts of substance.
The next test concerns Candida tropicalis. Nature of the test: Antifungal activity against Candida tropicalis after 24 hrs by micro broth dilution method. Format: functional.
In test [2] the test system is Candida albicans. Nature of the test: Antifungal activity against Candida albicans ATCC 90023 after 24 hrs by micro broth dilution method. The following applies: ATCC 90023, 24 h. The format is functional.
The next test has as its system Aspergillus fumigatus. Nature of the test: Antifungal activity against Aspergillus fumigatus after 24 hrs by micro broth dilution method. The format is functional.
In the next test the test system is Candida parapsilosis. Nature of the test: Antifungal activity against Candida parapsilosis ATCC 22019 after 24 hrs by micro broth dilution method. Format: functional. The following applies: Lodderomyces parapsilosis, ATCC 22019, 24 h.
In test [3] the test system is Calf thymus DNA. Description: Binding affinity to calf thymus DNA assessed as hyperchromic effect up to 2 x 10^-5mol/L by UV-Visible spectrometric analysis. The format is nucleic-acid assay. As to conditions: Bos taurus.
Test [4] deals with Calf thymus DNA. Nature of the test: Inhibition of neutral red binding to calf thymus DNA by UV-Visible spectrometric analysis. Format: nucleic-acid assay. As to conditions: Bos taurus.
The test system of test [5] is Candida albicans. Nature of the test: Induction of inner membrane permeabilization in Candida albicans assessed as propidium iodide uptake at 12 times MIC up to 105 mins by fluorescence assay. The format is functional, organism-based.
For test [6], the system named is Calf thymus DNA. Nature of the test: Binding affinity to calf thymus DNA assessed as increase in maximum absorption of DNA by UV-Visible spectrometric analysis. The following applies: Bos taurus. The format is nucleic-acid assay.
Test [7] deals with Candida albicans. Nature of the test: Potency index, ratio of 5-fluorocytosine MIC80 to compound MIC80 for Candida albicans. The format is functional.
Test [8] concerns Candida albicans. Nature of the test: Fungicidal activity against Candida albicans assessed as log reduction in fungal load at 4 time MIC up to 1 hr by time kill assay. The format is functional.
Test [9] deals with Candida albicans. Description: Potency index, ratio of fluconazole MIC80 to compound MIC80 for Candida albicans. Format: functional.

Take `C=CCN(CC(O)(Cn1cncn1)c1ccc(F)cc1F)c1nc(=O)[nH]cc1F` (stereo not drawn): the MIC80 against Candida albicans [1] was found to be 310 µM (≈ 126 µg/mL); against Candida tropicalis, 620 µM (≈ 252 µg/mL); in the test on Candida albicans [2], 620 µM (≈ 252 µg/mL); against Aspergillus fumigatus it was 620 µM (≈ 252 µg/mL); in the test with Candida parapsilosis it was 1250 µM (≈ 508 µg/mL).
`CCCCCCCCCCCCCCCCN(CC(O)(Cn1cncn1)c1ccc(F)cc1F)c1nc(=O)[nH]cc1F` (stereo not drawn): the MIC80 was found to be 860 µM (≈ 508 µg/mL) in the test with Candida albicans [1]; 860 µM (≈ 508 µg/mL) in the test on Candida tropicalis; 1730 µM (≈ 1020 µg/mL) in the test with Candida albicans [2]; 1770 µM (≈ 1050 µg/mL) against Aspergillus fumigatus; 860 µM (≈ 508 µg/mL) against Candida parapsilosis.
`CCCCCCCCCCN(CC(O)(Cn1cncn1)c1ccc(F)cc1F)c1nc(=O)[nH]cc1F` (stereo not drawn): the MIC80 against Candida albicans [1] came to 1010 µM (≈ 512 µg/mL); in the test on Candida tropicalis, 1010 µM (≈ 512 µg/mL); with Candida albicans [2] it was 2020 µM (≈ 1020 µg/mL); with Aspergillus fumigatus, 2020 µM (≈ 1020 µg/mL); in the test on Candida parapsilosis it was 1010 µM (≈ 512 µg/mL).
`CCN(CC(O)(Cn1cncn1)c1ccc(F)cc1F)c1nc(=O)[nH]cc1F` (stereo not drawn): the MIC80 was 160 µM (≈ 63.1 µg/mL) against Candida albicans [1]; 640 µM (≈ 252 µg/mL) with Candida tropicalis; 320 µM (≈ 126 µg/mL) in the test with Candida albicans [2]; 640 µM (≈ 252 µg/mL) in the test on Aspergillus fumigatus; 320 µM (≈ 126 µg/mL) against Candida parapsilosis.
In the case of `O=c1nc(N(Cc2ccccc2Cl)CC(O)(Cn2cncn2)c2ccc(F)cc2F)c(F)c[nH]1` (stereo not drawn), the MIC80 against Candida albicans [1] turned out to be 130 µM (≈ 63.8 µg/mL); in the test on Candida tropicalis it was 260 µM (≈ 128 µg/mL); in the test with Candida albicans [2], 260 µM (≈ 128 µg/mL); against Aspergillus fumigatus, 260 µM (≈ 128 µg/mL); in the test on Candida parapsilosis, 520 µM (≈ 255 µg/mL).
For the compound `O=c1nc(N(Cc2ccc(Cl)cc2)CC(O)(Cn2cncn2)c2ccc(F)cc2F)c(F)c[nH]1` (stereo not drawn), the MIC80 against Candida albicans [1], against Candida tropicalis, in the test on Candida albicans [2], in the test on Aspergillus fumigatus and against Candida parapsilosis was 130 µM (≈ 63.8 µg/mL) throughout.
As to `O=c1nc(N(Cc2cccc(Cl)c2)CC(O)(Cn2cncn2)c2ccc(F)cc2F)c(F)c[nH]1` (stereo not drawn), the MIC80 is 130 µM (≈ 63.8 µg/mL) in the test with Candida albicans [1]; 520 µM (≈ 255 µg/mL) in the test on Candida tropicalis; 130 µM (≈ 63.8 µg/mL) against Candida albicans [2]; 130 µM (≈ 63.8 µg/mL) in the test with Aspergillus fumigatus; 260 µM (≈ 128 µg/mL) in the test on Candida parapsilosis.
For the compound `CCCCCCN(CC(O)(Cn1cncn1)c1ccc(F)cc1F)c1nc(=O)[nH]cc1F` (stereo not drawn), the MIC80 against Candida albicans [1] came out at 560 µM (≈ 252 µg/mL); with Candida tropicalis, 1130 µM (≈ 509 µg/mL); in the test with Candida albicans [2], 560 µM (≈ 252 µg/mL); in the test with Aspergillus fumigatus, 560 µM (≈ 252 µg/mL); against Candida parapsilosis it was 280 µM (≈ 126 µg/mL).
In the case of `Nc1nc(=O)[nH]cc1F` [FLUCYTOSINE], the MIC80 was found to be 490 µM (≈ 63.3 µg/mL) against Candida albicans [1]; 1980 µM (≈ 256 µg/mL) against Candida tropicalis; 30 µM (≈ 3.87 µg/mL) with Candida albicans [2]; 1980 µM (≈ 256 µg/mL) against Aspergillus fumigatus; 990 µM (≈ 128 µg/mL) against Candida parapsilosis.
In the case of `CCCCCN(CC(O)(Cn1cncn1)c1ccc(F)cc1F)c1nc(=O)[nH]cc1F` (stereo not drawn), the MIC80 with Candida albicans [1] stood at 580 µM (≈ 253 µg/mL); in the test with Candida tropicalis, 290 µM (≈ 127 µg/mL); against Candida albicans [2], 580 µM (≈ 253 µg/mL); in the test on Aspergillus fumigatus, 580 µM (≈ 253 µg/mL); in the test on Candida parapsilosis, 1170 µM (≈ 511 µg/mL).
`OC(Cn1cncn1)(Cn1cncn1)c1ccc(F)cc1F` [FLUCONAZOLE]: the MIC80 with Candida albicans [1] is 200 µM (≈ 61.3 µg/mL); against Candida tropicalis, 830 µM (≈ 254 µg/mL); against Candida albicans [2] it was 3 µM (≈ 0.919 µg/mL); with Aspergillus fumigatus it was 1650 µM (≈ 505 µg/mL); in the test on Candida parapsilosis, 6 µM (≈ 1.84 µg/mL).
For `O=c1nc(N(Cc2ccccc2)CC(O)(Cn2cncn2)c2ccc(F)cc2F)c(F)c[nH]1` (stereo not drawn), in that order: 280 µM (≈ 128 µg/mL), 280 µM (≈ 128 µg/mL), 280 µM (≈ 128 µg/mL), 140 µM (≈ 63.9 µg/mL) and 280 µM (≈ 128 µg/mL).
Take `O=c1nc(N(Cc2ccc(Cl)c(Cl)c2)CC(O)(Cn2cncn2)c2ccc(F)cc2F)c(F)c[nH]1` (stereo not drawn): the MIC80 in the test with Candida albicans [1] was determined as 20 µM (≈ 10.5 µg/mL); in the test on Candida tropicalis, 30 µM (≈ 15.8 µg/mL); against Candida albicans [2], 8 µM (≈ 4.2 µg/mL); with Aspergillus fumigatus, 30 µM (≈ 15.8 µg/mL); against Candida parapsilosis, 30 µM (≈ 15.8 µg/mL). For the same compound, the result in the test with Calf thymus DNA [3] and in the test on Candida albicans [5] was Active. In addition, in the test on Calf thymus DNA [4], the inhibition entry was “Dose-dependent effect”. Further, the Activity result is “Dose-dependent effect” in the test with Calf thymus DNA [6] and more than 3 log10CFU/ml with Candida albicans [8]. The K in the test on Calf thymus DNA [6] is 4.88 ×10³ L/mol. The Ratio in the test on Candida albicans [7] and in the test with Candida albicans [9] was 8 each time.
On to `O=c1nc(N(Cc2ccccc2F)CC(O)(Cn2cncn2)c2ccc(F)cc2F)c(F)c[nH]1` (stereo not drawn), for which the MIC80 against Candida albicans [1] was determined as 260 µM (≈ 123 µg/mL); against Candida tropicalis, 530 µM (≈ 251 µg/mL); against Candida albicans [2], 530 µM (≈ 251 µg/mL); against Aspergillus fumigatus it was 530 µM (≈ 251 µg/mL); in the test with Candida parapsilosis, 530 µM (≈ 251 µg/mL).
With `O=c1nc(N(Cc2ccc(Cl)cc2Cl)CC(O)(Cn2cncn2)c2ccc(F)cc2F)c(F)c[nH]1` (stereo not drawn), the MIC80 came out at 240 µM (≈ 126 µg/mL) against Candida albicans [1]; 120 µM (≈ 63 µg/mL) with Candida tropicalis; 120 µM (≈ 63 µg/mL) against Candida albicans [2]; 240 µM (≈ 126 µg/mL) in the test on Aspergillus fumigatus; 480 µM (≈ 252 µg/mL) against Candida parapsilosis.
As for `CCCCCCCCN(CC(O)(Cn1cncn1)c1ccc(F)cc1F)c1nc(=O)[nH]cc1F` (stereo not drawn), the MIC80 in the test on Candida albicans [1] was found to be 1060 µM (≈ 507 µg/mL); with Candida tropicalis it was 1060 µM (≈ 507 µg/mL); in the test on Candida albicans [2] it was 530 µM (≈ 254 µg/mL); against Aspergillus fumigatus it was 2130 µM (≈ 1020 µg/mL); in the test with Candida parapsilosis it was 530 µM (≈ 254 µg/mL).
For `CCCCCCCCCCCCN(CC(O)(Cn1cncn1)c1ccc(F)cc1F)c1nc(=O)[nH]cc1F` (stereo not drawn), the MIC80 in the test on Candida albicans [1] turned out to be 950 µM (≈ 508 µg/mL); in the test with Candida tropicalis, 950 µM (≈ 508 µg/mL); in the test on Candida albicans [2], 1910 µM (≈ 1020 µg/mL); against Aspergillus fumigatus it was 1910 µM (≈ 1020 µg/mL); in the test with Candida parapsilosis it was 950 µM (≈ 508 µg/mL).
Regarding `O=c1nc(N(Cc2ccc(F)cc2)CC(O)(Cn2cncn2)c2ccc(F)cc2F)c(F)c[nH]1` (stereo not drawn), the MIC80 with Candida albicans [1] is 260 µM (≈ 123 µg/mL); with Candida tropicalis, 530 µM (≈ 251 µg/mL); against Candida albicans [2], 530 µM (≈ 251 µg/mL); against Aspergillus fumigatus, 260 µM (≈ 123 µg/mL); with Candida parapsilosis it was 530 µM (≈ 251 µg/mL).
As to `C#CCN(CC(O)(Cn1cncn1)c1ccc(F)cc1F)c1nc(=O)[nH]cc1F` (stereo not drawn), the MIC80 was determined as 310 µM (≈ 125 µg/mL) with Candida albicans [1]; 630 µM (≈ 255 µg/mL) in the test with Candida tropicalis; 1260 µM (≈ 509 µg/mL) in the test with Candida albicans [2]; 630 µM (≈ 255 µg/mL) with Aspergillus fumigatus; 1260 µM (≈ 509 µg/mL) against Candida parapsilosis.
Take `O=c1nc(NCC(O)(Cn2cncn2)c2ccc(F)cc2F)c(F)c[nH]1` (stereo not drawn): the MIC80 against Candida albicans [1] was 170 µM (≈ 62.3 µg/mL); against Candida tropicalis it was 40 µM (≈ 14.7 µg/mL); in the test with Candida albicans [2], 170 µM (≈ 62.3 µg/mL); in the test on Aspergillus fumigatus, 80 µM (≈ 29.3 µg/mL); with Candida parapsilosis, 170 µM (≈ 62.3 µg/mL).
In the case of `CCCCN(CC(O)(Cn1cncn1)c1ccc(F)cc1F)c1nc(=O)[nH]cc1F` (stereo not drawn), the MIC80 came to 300 µM (≈ 127 µg/mL) in the test on Candida albicans [1]; 600 µM (≈ 253 µg/mL) in the test with Candida tropicalis; 300 µM (≈ 127 µg/mL) in the test with Candida albicans [2]; 600 µM (≈ 253 µg/mL) in the test on Aspergillus fumigatus; 300 µM (≈ 127 µg/mL) in the test on Candida parapsilosis.
As for `CCCN(CC(O)(Cn1cncn1)c1ccc(F)cc1F)c1nc(=O)[nH]cc1F` (stereo not drawn), the MIC80 was determined as 310 µM (≈ 127 µg/mL) against Candida albicans [1]; 620 µM (≈ 253 µg/mL) against Candida tropicalis; 310 µM (≈ 127 µg/mL) against Candida albicans [2]; 620 µM (≈ 253 µg/mL) in the test on Aspergillus fumigatus; 620 µM (≈ 253 µg/mL) in the test with Candida parapsilosis.
